Values quoted from earlier work, collected in US10045948B2, “Pramipexole-containing transdermal patch for treatment of neurodegenerative disease” (MEDRX CO., LTD., priority 2014, dated 2018).

Details: in vivo

Patients with rash and other types of inflammation at the application site: 40-50%
Substance: rotigotine
